Holding throughout (assay): Cytotoxicity of compounds to tumor cell lines (MTS, 5 days)
What all share (format): cell-based

The subject of experiment [1] is A431(human epidermal carcinoma cells). Particulars: A-431, 120 h, A431, 5 days. Here is the method: (§1) In the present invention, various human-derived tumor cell lines (BxPC-3 (human orthotopic pancreatic adenocarcinoma cell), SW620 (human colon cancer cell), H1975 (human lung adenocarcinoma cell), HCC827 (human lung adenocarcinoma cell), FaDu (human pharyngeal squamous cell carcinoma cell) and A431(human epidermal carcinoma cells)) were used as experimental models to evaluate the cytotoxicity of compound to tumor cell lines. A certain number of tumor cells were seeded into a 96-well plate. After the cells adhered to the wall, gradient dilutions of tested compounds were added to the test cells, followed by incubation at 37 °C and 5% CO2 for 5 days. Cell viability was measured using MTS, and the inhibitory effect of the control compounds and the tested compounds on the tumor cell lines was evaluated byIC50. The compound with a starting concentration of 4000 nM was diluted 7 folds, with a total of 8 concentration points. […] Table 5: In vitro pharmacodynamic activity of control compounds and tested compounds in human-derived tumor cell lines BxPC-3, SW620 and H1975: […]

Experiment [2] concerns FaDu (human pharyngeal squamous cell carcinoma cell). Particulars: 120 h. The method, then: as §1
Experiment [3] deals with HCC827 (human lung adenocarcinoma cell). The note with it: 120 h, HCC827, 5 days. The method, then: as §1
Experiment [4] concerns H1975 (human lung adenocarcinoma cell). Particulars: NCI-H1975, 120 h, H1975, 5 days. Here is the method:
as §1

The test system of experiment [5] is BxPC-3 (human orthotopic pancreatic adenocarcinoma cell). The note with it: for IC50: Homo sapiens, 120 h, BxPC-3, 5 days, MTS; for anti-tumor effects: in words, BxPC-3, SW620, H1975, HCC827, FaDu and A431 cell models. Here is the method: as §1
The test system of experiment [6] is SW620 (human colon cancer cell). The note with it: SW-620, 120 h, SW620, 5 days. Here is the method: as §1

Molecules are shown by their SMILES.

Consider `C=C1C[C@@H]2CC[C@@]34C[C@H]5O[C@H]6[C@@H](O3)[C@H]3O[C@H](CC[C@@H]3O[C@H]6[C@H]5O4)CC(=O)C[C@@H]3[C@@H](OC)[C@@H](C[C@H](O)CN(C)C(=O)C(C)C)O[C@H]3C[C@H]3O[C@@H](CC[C@@H]1O2)C[C@@H](C)C3=C` [D-11], for which the IC50 in experiment [1] amounted to 0.02 nM; in experiment [2], 0.08 nM; in experiment [3], 0.01 nM; in experiment [4] it was 0.06 nM; in experiment [5] it was 0.01 nM; in experiment [6], 0.15 nM.
`C=C1C[C@@H]2CC[C@@]34C[C@H]5O[C@H]6[C@@H](O3)[C@H]3O[C@H](CC[C@@H]3O[C@H]6[C@H]5O4)CC(=O)C[C@@H]3[C@@H](OC)[C@@H](C[C@H](O)CN(C)C(=O)OCc4ccccc4)O[C@H]3C[C@H]3O[C@@H](CC[C@@H]1O2)C[C@@H](C)C3=C` [D-8]: the IC50 in experiment [1], in experiment [2], in experiment [3], in experiment [4], in experiment [5] and in experiment [6] was below 0.005 nM throughout. In experiment [5], the anti-tumor effects entry is reported as “the best effects”.
`C=CCOC(=O)N(C)C[C@@H](O)C[C@H]1O[C@H]2C[C@H]3O[C@@H](CC[C@@H]4O[C@@H](CC[C@@]56C[C@H]7O[C@H]8[C@@H](O5)[C@H]5O[C@H](CC[C@@H]5O[C@H]8[C@H]7O6)CC(=O)C[C@@H]2[C@H]1OC)CC4=C)C[C@@H](C)C3=C` [D-7]: the IC50 in experiment [1] is below 0.005 nM; in experiment [2], 0.01 nM; in experiment [3] it was below 0.005 nM; in experiment [4], 0.01 nM; in experiment [5], below 0.005 nM; in experiment [6] it was below 0.005 nM. In experiment [5], the anti-tumor effects result was “the best effects”.
Take `C=C1C[C@@H]2CC[C@@]34C[C@H]5O[C@H]6[C@@H](O3)[C@H]3O[C@H](CC[C@@H]3O[C@H]6[C@H]5O4)CC(=O)C[C@@H]3[C@@H](OC)[C@@H](C[C@H](O)CN(C)C(=O)c4ccccc4)O[C@H]3C[C@H]3O[C@@H](CC[C@@H]1O2)C[C@@H](C)C3=C` [D-9]: the IC50 in experiment [1], in experiment [2], in experiment [3], in experiment [4], in experiment [5] and in experiment [6] was below 0.005 nM each time. The anti-tumor effects result in experiment [5] was “the best effects”.
On to `C=C1C[C@@H]2CC[C@@]34C[C@H]5O[C@H]6[C@@H](O3)[C@H]3O[C@H](CC[C@@H]3O[C@H]6[C@H]5O4)CC(=O)C[C@@H]3[C@@H](OC)[C@@H](C[C@H](O)CNC)O[C@H]3C[C@H]3O[C@@H](CC[C@@H]1O2)C[C@@H](C)C3=C` [D-2], for which the IC50 in experiment [1] was 0.02 nM; in experiment [2], 0.37 nM; in experiment [3], 0.025 nM; in experiment [4] it was 0.25 nM; in experiment [5], 0.03 nM; in experiment [6], 1.25 nM.
`C=C1C[C@@H]2CC[C@@]34C[C@H]5O[C@H]6[C@@H](O3)[C@H]3O[C@H](CC[C@@H]3O[C@H]6[C@H]5O4)CC(=O)C[C@@H]3[C@@H](OC)[C@@H](C[C@H](O)CN(C)S(C)(=O)=O)O[C@H]3C[C@H]3O[C@@H](CC[C@@H]1O2)C[C@@H](C)C3=C` [D-14]: the IC50 in experiment [1] came out at 0.01 nM; in experiment [2] it was 0.16 nM; in experiment [3] it was 0.01 nM; in experiment [4], 0.1 nM; in experiment [5], 0.01 nM; in experiment [6], 0.19 nM.
Turning to `C=C1C[C@@H]2CC[C@@]34C[C@H]5O[C@H]6[C@@H](O3)[C@H]3O[C@H](CC[C@@H]3O[C@H]6[C@H]5O4)CC(=O)C[C@@H]3[C@@H](OC)[C@@H](C[C@H](O)CN)O[C@H]3C[C@H]3O[C@@H](CC[C@@H]1O2)C[C@@H](C)C3=C` [D-4(eribulin), eribulin], the IC50 is 0.03 nM in experiment [1]; 0.73 nM in experiment [2]; 0.05 nM in experiment [3]; 0.39 nM in experiment [4]; 0.06 nM in experiment [5]; 2.56 nM in experiment [6].
`C=C1C[C@@H]2CC[C@@]34C[C@H]5O[C@H]6[C@@H](O3)[C@H]3O[C@H](CC[C@@H]3O[C@H]6[C@H]5O4)CC(=O)C[C@@H]3[C@@H](OC)[C@@H](C[C@H](O)CN(C)C(=O)OC(C)(C)C)O[C@H]3C[C@H]3O[C@@H](CC[C@@H]1O2)C[C@@H](C)C3=C` [D-3]: the concentration for half-maximal inhibition (IC50) in experiment [1], in experiment [2], in experiment [3], in experiment [4], in experiment [5] and in experiment [6] was below 0.005 nM throughout. Further, in experiment [5], the anti-tumor effects result is “the best effects”.
On to `C=C1C[C@@H]2CC[C@@]34C[C@H]5O[C@H]6[C@@H](O3)[C@H]3O[C@H](CC[C@@H]3O[C@H]6[C@H]5O4)CC(=O)C[C@@H]3[C@@H](OC)[C@@H](C[C@H](O)CNC(=O)OC(C)(C)C)O[C@H]3C[C@H]3O[C@@H](CC[C@@H]1O2)C[C@@H](C)C3=C` [D-13], for which the IC50 in experiment [1], in experiment [2], in experiment [3], in experiment [4], in experiment [5] and in experiment [6] was below 0.005 nM in each case. The anti-tumor effects result in experiment [5] is recorded as “the best effects”.
`C=C1C[C@@H]2CC[C@@]34C[C@H]5O[C@H]6[C@@H](O3)[C@H]3O[C@H](CC[C@@H]3O[C@H]6[C@H]5O4)CC(=O)C[C@@H]3[C@@H](OC)[C@@H](C[C@H](O)CN(C)C(=O)C(C)(C)C)O[C@H]3C[C@H]3O[C@@H](CC[C@@H]1O2)C[C@@H](C)C3=C` [D-12]: the IC50 in experiment [1], in experiment [2], in experiment [3], in experiment [4], in experiment [5] and in experiment [6] was below 0.005 nM each time. Moreover, in experiment [5], the anti-tumor effects result was “the best effects”.
Take `C=C1C[C@@H]2CC[C@@]34C[C@H]5O[C@H]6[C@@H](O3)[C@H]3O[C@H](CC[C@@H]3O[C@H]6[C@H]5O4)CC(=O)C[C@@H]3[C@@H](OC)[C@@H](C[C@H](O)CNC(=O)[C@H]4C[C@@H](OC)C4)O[C@H]3C[C@H]3O[C@@H](CC[C@@H]1O2)C[C@@H](C)C3=C` [D-21]: the IC50 amounted to 0.12 nM in experiment [1]; 0.39 nM in experiment [2]; 0.04 nM in experiment [3]; 0.24 nM in experiment [4]; 0.05 nM in experiment [5]; 0.24 nM in experiment [6].
As for `C=C1C[C@@H]2CC[C@@]34C[C@H]5O[C@H]6[C@@H](O3)[C@H]3O[C@H](CC[C@@H]3O[C@H]6[C@H]5O4)CC(=O)C[C@@H]3[C@@H](OC)[C@@H](C[C@H](O)CN(C)C(=O)C(F)F)O[C@H]3C[C@H]3O[C@@H](CC[C@@H]1O2)C[C@@H](C)C3=C` [D-15], the half-inhibitory concentration (IC50) in experiment [1] came to 0.02 nM; in experiment [2], 0.33 nM; in experiment [3] it was 0.02 nM; in experiment [4], 0.14 nM; in experiment [5], 0.03 nM; in experiment [6] it was 0.69 nM.

Values taken from patent EP4653016A1, “CONJUGATE OF ERIBULIN DRUG” (SystImmune, Inc., priority 2023, dated 2024).
